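These data come from cells grown in 96-well plates and exposed to compound for 48 hours at five concentrations. GI50 = concentration required for 50% inhibition of growth. Definition used: TGI = concentration required for complete inhibition of growth.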
Columns and labels:
Test in all cases: inhibition of tumour cell growth, NCI panel, 48 h
[1] = system: 786-0 renal
[2] = system: A498 renal
[3] = system: A549 NSCLC
[4] = system: ACHN renal
[5] = system: BT-549 breast
[6] = system: CAKI-1 renal
[7] = system: CCRF-CEM leukemia
[8] = system: COLO 205 colon
[9] = system: DU-145 prostate
[10] = system: EKVX NSCLC
[11] = system: HCC-2998 colon
[12] = system: HCT-116 colon
[13] = system: HCT-15 colon
[14] = system: HL-60(TB) leukemia
[15] = system: HOP-62 NSCLC
[16] = system: HOP-92 NSCLC
[17] = system: HS 578T breast
[18] = system: HT29 colon
[19] = system: IGROV1 ovarian
[20] = system: K-562 leukemia
[21] = system: KM12 colon
[22] = system: LOX IMVI melanoma
[23] = system: M14 melanoma
[24] = system: MALME-3M melanoma
[25] = system: MCF7 breast
[26] = system: MDA-MB-231 breast
[27] = system: MDA-MB-435
[28] = system: MDA-MB-468 breast
[29] = system: MOLT-4 leukemia
[30] = system: NCI-H226 lung
[31] = system: NCI-H23 lung
[32] = system: NCI-H460 lung
[33] = system: NCI-H522 lung
[34] = system: NCI/ADR-RES ovarian
[35] = system: OVCAR-3 ovarian
[36] = system: OVCAR-4 ovarian
[37] = system: OVCAR-5 ovarian
[38] = system: OVCAR-8 ovarian
[39] = system: PC-3 prostate
[40] = system: RPMI-8226 leukemia
[41] = system: RXF 393 renal
[42] = system: SF-268 CNS
[43] = system: SF-295 CNS
[44] = system: SF-539 CNS
[45] = system: SK-MEL-2 melanoma
[46] = system: SK-MEL-28 melanoma
[47] = system: SK-MEL-5 melanoma
[48] = system: SK-OV-3 ovarian
[49] = system: SN12C renal
[50] = system: SNB-19 CNS
[51] = system: SNB-75 CNS
[52] = system: SR leukemia
[53] = system: SW-620 colon
[54] = system: T-47D breast
[55] = system: TK-10 renal
[56] = system: U251 CNS
[57] = system: UACC-257 melanoma
[58] = system: UACC-62 melanoma
[59] = system: UO-31 renal

Structure (SMILES): CC[C@]12C=CCN3CC[C@]4(C(=C(C(=O)OC)C1)Nc1cc(OC)c([C@@H]5[C@H]6O[C@H]6[C@@]6(CC)CC(C(=O)OC)=C7Nc8cc(O)ccc8[C@@]78CCN5[C@@H]68)cc14)[C@@H]32
- GI50 [1]: 5.71 µM
- TGI [1]: 49.4 µM
- GI50 [2]: 13.1 µM
- TGI [2]: 40 µM
- GI50 [3]: 4.56 µM
- TGI [3]: > 56.5 µM
- GI50 [4]: 6.67 µM
- TGI [4]: 20.3 µM
- GI50 [5]: 6.27 µM
- TGI [5]: 18.9 µM
- GI50 [6]: 4 µM
- TGI [6]: 50.1 µM
- GI50 [7]: 2.19 µM
- TGI [7]: > 56.5 µM
- GI50 [8]: 10.4 µM
- TGI [8]: 24 µM
- GI50 [9]: 12.3 µM
- TGI [9]: 50 µM
- GI50 [10]: 3.7 µM
- TGI [10]: 31.7 µM
- GI50 [11]: 3.32 µM
- TGI [11]: 10.9 µM
- GI50 [12]: 2.17 µM
- TGI [12]: 12.6 µM
- GI50 [13]: 2.91 µM
- TGI [13]: 11.4 µM
- GI50 [14]: 1.78 µM
- TGI [14]: 8.34 µM
- GI50 [15]: 12.9 µM
- TGI [15]: 27.5 µM
- GI50 [16]: 5.99 µM
- TGI [16]: 14.3 µM
- GI50 [17]: 11.7 µM
- TGI [17]: > 56.5 µM
- GI50 [18]: 6.12 µM
- TGI [18]: 18.9 µM
- GI50 [19]: 8.95 µM
- TGI [19]: 25 µM
- GI50 [20]: 1.91 µM
- TGI [20]: 12.4 µM
- GI50 [21]: 3.27 µM
- TGI [21]: 14.9 µM
- GI50 [22]: 3.11 µM
- TGI [22]: 10.5 µM
- GI50 [23]: 2.91 µM
- TGI [23]: 16.3 µM
- GI50 [24]: 5.97 µM
- TGI [24]: 12.8 µM
- GI50 [25]: 1.73 µM
- TGI [25]: 11.6 µM
- GI50 [26]: 6.8 µM
- TGI [26]: 13.9 µM
- GI50 [27]: 3.71 µM
- TGI [27]: 14.2 µM
- GI50 [28]: 1.11 µM
- TGI [28]: 7.28 µM
- GI50 [29]: 1.34 µM
- TGI [29]: 6.82 µM
- GI50 [30]: 5.95 µM
- TGI [30]: 15 µM
- GI50 [31]: 6.13 µM
- TGI [31]: 18.8 µM
- GI50 [32]: 2.87 µM
- TGI [32]: 10.9 µM
- GI50 [33]: 2.41 µM
- TGI [33]: 11.6 µM
- GI50 [34]: 7.86 µM
- TGI [34]: 26.8 µM
- GI50 [35]: 3.92 µM
- TGI [35]: 12.1 µM
- GI50 [36]: 5.68 µM
- TGI [36]: > 56.5 µM
- GI50 [37]: 10.5 µM
- TGI [37]: 27.5 µM
- GI50 [38]: 12.4 µM
- TGI [38]: > 56.5 µM
- GI50 [39]: 1.99 µM
- TGI [39]: 16.7 µM
- GI50 [40]: 1.53 µM
- TGI [40]: > 56.5 µM
- GI50 [41]: 2.6 µM
- TGI [41]: 12.5 µM
- GI50 [42]: 5.6 µM
- TGI [42]: 43.5 µM
- GI50 [43]: 5 µM
- TGI [43]: 15.3 µM
- GI50 [44]: 10.8 µM
- TGI [44]: 27.4 µM
- GI50 [45]: 8.75 µM
- TGI [45]: 19.8 µM
- GI50 [46]: 7.57 µM
- TGI [46]: 24.5 µM
- GI50 [47]: 3.66 µM
- TGI [47]: 11.4 µM
- GI50 [48]: 17.7 µM
- TGI [48]: > 56.5 µM
- GI50 [49]: 6.01 µM
- TGI [49]: 15.3 µM
- GI50 [50]: 14.6 µM
- TGI [50]: > 56.5 µM
- GI50 [51]: 2.95 µM
- TGI [51]: > 56.5 µM
- GI50 [52]: 2.18 µM
- TGI [52]: 21.7 µM
- GI50 [53]: 5.67 µM
- TGI [53]: 14.6 µM
- GI50 [54]: 1.9 µM
- TGI [54]: 23.8 µM
- GI50 [55]: 21.2 µM
- TGI [55]: > 56.5 µM
- GI50 [56]: 4.33 µM
- TGI [56]: 14.6 µM
- GI50 [57]: 4.3 µM
- TGI [57]: 15.5 µM
- GI50 [58]: 3.27 µM
- TGI [58]: 11.6 µM
- GI50 [59]: 4.31 µM
- TGI [59]: 13.8 µM

Structure (SMILES): C/C(=N\Nc1ccc(S(N)(=O)=O)cc1)c1ccc(N=Nc2c(Nc3ccccc3)[nH][nH]c2=O)cc1
- GI50 [1]: 2.14 µM
- TGI [1]: 6.27 µM
- GI50 [2]: 11.4 µM
- TGI [2]: 32.8 µM
- GI50 [3]: 19.4 µM
- TGI [3]: > 100 µM
- GI50 [4]: 5.9 µM
- TGI [4]: 18.5 µM
- GI50 [5]: 2.83 µM
- TGI [5]: 9.66 µM
- GI50 [6]: 12.5 µM
- TGI [6]: 25.1 µM
- GI50 [7]: 2.63 µM
- TGI [7]: 8.92 µM
- GI50 [8]: 3.28 µM
- TGI [8]: 12 µM
- GI50 [9]: 3.21 µM
- TGI [9]: 10.4 µM
- GI50 [10]: 5.39 µM
- TGI [10]: 26.9 µM
- GI50 [11]: 2.29 µM
- TGI [11]: 6.08 µM
- GI50 [12]: 3.04 µM
- TGI [12]: 10.3 µM
- GI50 [13]: 5.29 µM
- TGI [13]: 18.4 µM
- GI50 [14]: 2.86 µM
- TGI [14]: 17.1 µM
- GI50 [15]: 2.05 µM
- TGI [15]: 6 µM
- GI50 [16]: 1.3 µM
- TGI [16]: 6.55 µM
- GI50 [17]: 3.31 µM
- TGI [17]: 19.4 µM
- GI50 [18]: 3.58 µM
- TGI [18]: 11.6 µM
- GI50 [19]: 4.5 µM
- TGI [19]: 17.6 µM
- GI50 [20]: 2.29 µM
- TGI [20]: 6.37 µM
- GI50 [21]: 2.66 µM
- TGI [21]: 8.95 µM
- GI50 [22]: 2.13 µM
- TGI [22]: 4.33 µM
- GI50 [23]: 2.83 µM
- TGI [23]: 7.55 µM
- GI50 [24]: 1.98 µM
- TGI [24]: 3.85 µM
- GI50 [25]: 2.4 µM
- TGI [25]: 7.34 µM
- GI50 [26]: 2 µM
- TGI [26]: 4.07 µM
- GI50 [27]: 2.07 µM
- TGI [27]: 5.03 µM
- GI50 [28]: 1.4 µM
- TGI [28]: 3 µM
- GI50 [29]: 1.64 µM
- TGI [29]: 5.24 µM
- GI50 [30]: 3.31 µM
- TGI [30]: 12.3 µM
- GI50 [31]: 2.54 µM
- TGI [31]: 6.53 µM
- GI50 [32]: 3.21 µM
- TGI [32]: 11.1 µM
- GI50 [33]: 2.17 µM
- TGI [33]: 5.25 µM
- GI50 [34]: > 100 µM
- TGI [34]: > 100 µM
- GI50 [35]: 1.87 µM
- TGI [35]: 4.54 µM
- GI50 [36]: 2.84 µM
- TGI [36]: 9.26 µM
- GI50 [37]: 11 µM
- TGI [37]: 24.4 µM
- GI50 [38]: 2.59 µM
- TGI [38]: 7.81 µM
- GI50 [39]: 3.06 µM
- TGI [39]: 11.3 µM
- GI50 [40]: 3.36 µM
- TGI [40]: 28.2 µM
- GI50 [41]: 1.1 µM
- TGI [41]: 3.88 µM
- GI50 [42]: 2.22 µM
- TGI [42]: 6.23 µM
- GI50 [43]: 3.67 µM
- TGI [43]: 13.6 µM
- GI50 [44]: 1.58 µM
- TGI [44]: 3.68 µM
- GI50 [45]: 2.11 µM
- TGI [45]: 4.38 µM
- GI50 [46]: 1.91 µM
- TGI [46]: 3.65 µM
- GI50 [47]: 3.32 µM
- TGI [47]: 12.8 µM
- GI50 [48]: 2.34 µM
- TGI [48]: 6.47 µM
- GI50 [49]: 2.38 µM
- TGI [49]: 6.58 µM
- GI50 [50]: 2.59 µM
- TGI [50]: 8.76 µM
- GI50 [52]: 1.74 µM
- TGI [52]: 5.33 µM
- GI50 [53]: 3.18 µM
- TGI [53]: 12.6 µM
- GI50 [54]: 2.22 µM
- TGI [54]: 5.92 µM
- GI50 [55]: 18.6 µM
- TGI [55]: 56.8 µM
- GI50 [56]: 1.88 µM
- TGI [56]: 3.76 µM
- GI50 [57]: 3.97 µM
- TGI [57]: 16.7 µM
- GI50 [58]: 1.96 µM
- TGI [58]: 4.34 µM
- GI50 [59]: 19.4 µM
- TGI [59]: > 100 µM

— PubChem BioAssay (NCI)
